For the series the following is noted: pH 8.3.

Structures can show the parent of a compound that is named as a salt.

The values that follow come from US4748116A, “Peptide substrates for determination of protease activity” (KabiVitrum AB, priority 1980, dated 1988).

As for `CC(C)C[C@H](NC(=O)[C@@H](NC(=O)OC(C)(C)C)C(C)C)C(=O)N[C@@H](CCCCN)C(=O)Nc1ccc2c(=O)[nH][nH]c(=O)c2c1` [XXI, Boc--Val--Leu--Lys--Isl.HCl], the “stability of substrate” value is given as “very stable”.
